Measurements as given in patent US12492193B2, “Pyrazole derivatives for the treatment of cystic fibrosis” (Fondazione Istituto Italiano Di Tecnologia, priority 2017, dated 2025).

Tests used:
Format in all cases: cell-based
[1] = molecular target: T1, F508del-CFTR (Homo sapiens, UniProt P13569, DEL508-508); assay: Short-circuit current recordings on human bronchial epithelial cells (F508del/F508del); set-up: Human bronchial epithelial (HBE) cells obtained from CF patients (F508del/F508del genotype); endogenous in cells; host or cells: primary human bronchial epithelial cells from CF patients, F508del/F508del; conditions: HBE cells from CF patients (F508del/F508del), 24 hrs treatment; table 3
T1 sequence (P13569 with tags, fused parts or gaps DEL508-508): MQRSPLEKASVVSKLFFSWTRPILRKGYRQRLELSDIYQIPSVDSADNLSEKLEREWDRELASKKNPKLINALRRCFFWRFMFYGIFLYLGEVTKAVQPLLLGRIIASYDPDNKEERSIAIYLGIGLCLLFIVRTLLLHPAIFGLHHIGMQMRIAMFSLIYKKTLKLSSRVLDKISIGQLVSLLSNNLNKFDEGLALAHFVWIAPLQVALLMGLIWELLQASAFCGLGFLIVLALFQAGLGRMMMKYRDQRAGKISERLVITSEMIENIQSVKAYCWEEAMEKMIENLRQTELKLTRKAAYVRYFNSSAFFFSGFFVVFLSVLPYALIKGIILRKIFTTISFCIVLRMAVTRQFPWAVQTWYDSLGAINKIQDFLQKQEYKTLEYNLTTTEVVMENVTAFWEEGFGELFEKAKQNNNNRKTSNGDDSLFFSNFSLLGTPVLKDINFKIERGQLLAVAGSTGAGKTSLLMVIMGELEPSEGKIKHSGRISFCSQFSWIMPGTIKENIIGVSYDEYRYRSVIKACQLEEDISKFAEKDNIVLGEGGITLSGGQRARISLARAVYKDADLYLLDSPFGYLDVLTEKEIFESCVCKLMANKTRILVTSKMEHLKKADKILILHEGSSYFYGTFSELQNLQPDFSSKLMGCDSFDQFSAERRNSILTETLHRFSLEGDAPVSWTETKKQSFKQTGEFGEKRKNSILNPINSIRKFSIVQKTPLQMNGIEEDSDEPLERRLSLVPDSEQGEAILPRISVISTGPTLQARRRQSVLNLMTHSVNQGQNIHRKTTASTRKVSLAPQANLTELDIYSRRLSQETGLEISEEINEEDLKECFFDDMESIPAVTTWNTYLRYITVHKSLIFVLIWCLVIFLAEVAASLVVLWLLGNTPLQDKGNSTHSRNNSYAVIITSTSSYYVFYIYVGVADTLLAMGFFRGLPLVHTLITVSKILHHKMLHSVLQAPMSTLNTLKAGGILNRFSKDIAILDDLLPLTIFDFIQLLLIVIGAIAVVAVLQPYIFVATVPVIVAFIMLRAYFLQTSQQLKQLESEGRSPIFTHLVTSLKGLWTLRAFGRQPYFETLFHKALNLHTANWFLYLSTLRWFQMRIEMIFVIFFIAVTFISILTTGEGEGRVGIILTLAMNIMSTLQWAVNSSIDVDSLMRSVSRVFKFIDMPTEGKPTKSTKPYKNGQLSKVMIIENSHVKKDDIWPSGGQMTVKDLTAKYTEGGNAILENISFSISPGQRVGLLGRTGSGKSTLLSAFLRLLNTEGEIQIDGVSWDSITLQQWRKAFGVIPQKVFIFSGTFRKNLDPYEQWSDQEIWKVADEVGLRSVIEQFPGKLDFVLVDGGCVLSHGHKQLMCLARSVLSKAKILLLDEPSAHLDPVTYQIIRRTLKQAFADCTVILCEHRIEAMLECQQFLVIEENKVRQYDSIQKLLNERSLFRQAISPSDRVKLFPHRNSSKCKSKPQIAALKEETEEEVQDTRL
Description: Short-Circuit Current Recordings on Human Bronchial Epithelial Cells
Human bronchial epithelial (HBE) cells obtained from CF patients (F508del/F508del genotype) were plated on Snapwell inserts (Code 3801, Corning Life Sciences) at a density of 500,000 cells per insert. Cells were cultured for two weeks in a differentiating medium whose compositions has been previously described (Scudieri et al., J Physiol 590:6141-6155, 2012). For the first week, the medium was kept on both apical and basolateral sides of inserts (submerged condition). For the second week, the apical medium was removed (air-liquid condition, ALC). To test the activity of correctors, cells were treated for 24 hrs with compounds dissolved in the basolateral medium. After treatment, Snapwell inserts carrying differentiated bronchial epithelia were mounted in a vertical chamber resembling an Ussing system with internal fluid circulation. Both apical and basolateral hemichambers were filled with 5 mL of a Krebs bicarbonate solution containing (in mM): 126 NaCl, 0.38 KH2PO4, 2.13 K2HPO4, 1 MgSO4, 1 CaCl2), 24 NaHCO3, and 10 glucose. Both sides were continuously bubbled with a gas mixture containing 5% CO2-95% air and the temperature of the solution was kept at 37° C. The transepithelial voltage was short-circuited with a voltage-clamp (DVC-1000, World Precision Instruments) connected to the apical and basolateral chambers via Ag/AgCl electrodes and agar bridges (1 M KCl in 1% agar). The offset between voltage electrodes and the fluid resistance were canceled before experiments. The short-circuit current was recorded with a PowerLab 4/25 (ADInstruments) analogical to digital converter connected to a Macintosh computer. […] The difference between the current measured with CPT-cAMP plus potentiator and the current remaining after CFTRinh-172 treatment (ΔICFTR) was taken as the parameter reflecting F508del-CFTR expression in the apical membrane.
Activities of selected compounds on HBE cells (expressed as ΔICFTR) are illustrated in table 3 wherein +: ΔICFTR<2.0 μA; ++: 2.0 μA<ΔICFTR<3.0 μA; +++: ΔICFTR>3.0 μA.

[2] = molecular target: T2, mutant CFTR (Homo sapiens, UniProt P13569, DEL508-508); assay: Fluorescence (HS-YFP) assay for CFTR activity, corrector assay; conditions: CFBE41o- and FRT cells with stable expression of mutant CFTR, 24 h compound treatment
T2 construct: expressed in transfected cells
T2 sequence (P13569 with tags, fused parts or gaps DEL508-508): as above
Procedure, shortened: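 Corrector activity: 24 h compound treatment of HS-YFP/mutant-CFTR CFBE41o- or FRT cells, followed by 30 min forskolin 20 μM + genistein 50 μM at 37° C. Iodide influx (100 mM final) was tracked as fluorescence quenching, with dF/dt extrapolated by exponential fitting; EC50 values derived.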

[3] = molecular target: T1, F508del-CFTR; assay: Transepithelial electrical conductance (TEEC) in FRT cells expressing F508del-CFTR; set-up: expressed in transfected cells; host or cells: FRT cells; conditions: compounds tested at 5.0 μM, 24 hrs, table 2
Description: Transepithelial Electrical Conductance (TEEC)
FRT cells expressing F508del-CFTR were plated on HTS Transwell-24 well permeable supports (Code 3379, Corning Life Sciences) at a density of 200,000 cells/well. After six days, cells were incubated for 24 hrs with test correctors, vehicle, or VX-809. Compounds were dissolved in both basolateral (800 μL) and apical (300 μL) culture medium. After treatment, the culture medium was removed and replaced on both sides with a saline solution containing (in mM): 130 NaCl, 2.7 KCl, 1.5 KH2PO4, 1 CaCl2), 0.5 MgCl2, 10 glucose, 10 Na-Hepes (pH 7.4). The basolateral and apical side received 800 μL and […], respectively. The 24-well tray with cells was placed on a block heater (SBH 130D, Stuart) to keep the temperature at 37° C. during the entire experiment. After 10 min, the basal transepithelial electrical resistance (TEER) across each layer of FRT cells was measured with a STX100C electrode pair connected to an EVOM2 voltohmeter (World Precision Instruments). To stimulate F508del-CFTR, each well received (apical side) 50 μL of saline solution containing 60 μM forskolin and 150 μM genistein (final concentrations: 20 μM forskolin, 50 μM genistein). Forskolin was also pipetted in the basolateral medium to obtain the 20 μM concentration. After 10 min TEER was measured again in each well. To block F508del-CFTR function, the inhibitor PPQ-102 was used at the final concentration of 30 μM. To achieve the desired concentration, 75 μL of the apical solution in each well was replaced with an equal volume of saline solution containing 20 μM forskolin, 50 μM genistein, and 60 μM PPQ-102. After further 10 min, the transepithelial electrical resistance was measured. All values of TEER were converted to transepithelial electrical conductance (TEEC) using the formula TEEC=1/TEER. The parameter to indicate activity of F508del-CFTR in each well (ATEEC) was calculated from the difference in TEEC measured after maximal stimulation of F508del-CFTR with forskolin and genistein and after block with PPQ-102.
Corrector activities obtained on selected compounds tested at 5.0 μM (expressed as ΔTEEC values) are illustrated in table 2, wherein +: ΔTEEC<2000 μS; ++: 2000 μS<ΔTEEC<3000 μS; […]: ΔTEEC>3000 μS.

Row | Compound | activity on HBE cells (ΔICFTR) [1] | EC50 [2] | Corrector activity (ΔTEEC) [3]
1 | CCOC(=O)c1ccc(OCc2c(Cl)c(C)nn2-c2cccc(C(=O)N(C)c3ccc4c(c3)OCO4)c2)cc1 [compound 141, Ethyl 4-[[2-[3-[1,3-benzodioxol-5-yl(methyl)carbamoyl]phenyl]-4-chloro-5-methyl-pyrazol-3-yl]methoxy]benzoate] | +++ (ΔICFTR>3.0 μA) | < 1 µM | ++ (2000 μS<ΔTEEC<3000 μS)
2 | Cc1nc2cc(Cl)c(N(C)C(=O)c3cccc(-n4nc(C)c(Cl)c4C)c3)cc2o1 [compound 080, 3-(4-Chloro-3,5-dimethyl-pyrazol-1-yl)-N-(5-chloro-2-methyl-1,3-benzoxazol-6-yl)-N-methyl-benzamide] | ++ (2.0 μA<ΔICFTR<3.0 μA) | < 1 µM | ++ (2000 μS<ΔTEEC<3000 μS)
3 | Cc1nn(-c2cccc(C(=O)N(C)c3ccc4c(c3)OCO4)c2)c(C(=O)OC(C)(C)C)c1Cl [compound 089, Tert-butyl 2-[3-[1,3-benzodioxol-5-yl(methyl)carbamoyl]phenyl]-4-chloro-5-methyl-pyrazole-3-carboxylate] | +++ (ΔICFTR>3.0 μA) | < 1 µM | + (ΔTEEC<2000 μS)
4 | Cc1c(Br)c(C(F)(F)F)nn1-c1cccc(C(=O)N(C)c2ccc3c(c2)OCO3)c1 [compound 098, N-(1,3-Benzodioxol-5-yl)-3-[4-bromo-5-methyl-3-(trifluoromethyl)pyrazol-1-yl]-N-methyl-benzamide] | +++ (ΔICFTR>3.0 μA) | < 1 µM | ++ (2000 μS<ΔTEEC<3000 μS)
5 | Cc1nn(-c2cccc(C(=O)N(C)c3ccc4c(c3)OCO4)c2)c(COc2ccc(C(=O)O)cc2)c1Cl [compound 144, 4-[[2-[3-[1,3-Benzodioxol-5-yl(methyl)carbamoyl]phenyl]-4-chloro-5-methyl-pyrazol-3-yl]methoxy]benzoic acid] | ++ (2.0 μA<ΔICFTR<3.0 μA) | < 1 µM | 
6 | CC(C)Cc1cc(C(F)(F)F)nn1-c1cccc(C(=O)N(C)c2ccc3c(c2)OCO3)c1 [compound 100, N-(1,3-Benzodioxol-5-yl)-3-[5-isobutyl-3-(trifluoromethyl)pyrazol-1-yl]-N-methyl-benzamide] | + (ΔICFTR<2.0 μA) | < 1 µM | + (ΔTEEC<2000 μS)
7 | CCOC(=O)c1c(Cl)c(C)nn1-c1cccc(C(=O)N(C)c2ccc3c(c2)OCO3)c1 [compound 075, Ethyl 2-[3-[1,3-benzodioxol-5-yl(methyl)carbamoyl]phenyl]-4-chloro-5-methyl-pyrazole-3-carboxylate] | + (ΔICFTR<2.0 μA) | < 1 µM | + (ΔTEEC<2000 μS)
8 | Cc1c(Cl)c(C(F)(F)F)nn1-c1cccc(C(=O)N(C)c2ccc3c(c2)OCO3)c1 [compound 090, N-(1,3-Benzodioxol-5-yl)-3-[4-chloro-5-methyl-3-(trifluoromethyl)pyrazol-1-yl]-N-methyl-benzamide] | +++ (ΔICFTR>3.0 μA) | < 1 µM | ++ (2000 μS<ΔTEEC<3000 μS)
9 | CN(C(=O)c1cccc(-n2nc(C(F)(F)F)cc2-c2ccccc2)c1)c1ccc2c(c1)OCO2 [compound 125, N-(1,3-Benzodioxol-5-yl)-N-methyl-3-[5-phenyl-3-(trifluoromethyl)pyrazol-1-yl]benzamide] | + (ΔICFTR<2.0 μA) | < 1 µM | + (ΔTEEC<2000 μS)
10 | Cc1nn(-c2cccc(C(=O)N(C)c3ccc4c(c3)OCO4)c2)c(C)c1C(F)(F)F [compound 099, N-(1,3-Benzodioxol-5-yl)-3-[3,5-dimethyl-4-(trifluoromethyl)pyrazol-1-yl]-N-methyl-benzamide] | ++ (2.0 μA<ΔICFTR<3.0 μA) | < 1 µM | ++ (2000 μS<ΔTEEC<3000 μS)
11 | Cc1nn(-c2cccc(C(=O)N(C)c3ccc4c(c3)OC(F)(F)O4)c2)c(C)c1Cl [compound 009, 3-(4-Chloro-3,5-dimethyl-pyrazol-1-yl)-N-(2,2-difluoro-1,3-benzodioxol-5-yl)-N-methyl-benzamide] | ++ (2.0 μA<ΔICFTR<3.0 μA) | 1 to 2 µM | + (ΔTEEC<2000 μS)
12 | Cc1nc2ccc(N(C)C(=O)c3cccc(-n4nc(C(F)(F)F)c(Cl)c4C)c3)cc2o1 [compound 108, 3-[4-Chloro-5-methyl-3-(trifluoromethyl)pyrazol-1-yl]-N-methyl-N-(2-methyl-1,3-benzoxazol-6-yl)benzamide] | + (ΔICFTR<2.0 μA) | < 1 µM | ++ (2000 μS<ΔTEEC<3000 μS)
